Experimental data reported in PubChem BioAssay (NCI).
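Exposure lasted 48 hours, with cells grown in 96-well plates and compounds tested at five concentrations. TGI: concentration producing complete growth inhibition.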

Legend:
Experiment in all cases: NCI-60 cell line screen, 48 h
A549 NSCLC = test system: A549 NSCLC
M14 melanoma = test system: M14 melanoma
DU-145 prostate = test system: DU-145 prostate
HCT-116 colon = test system: HCT-116 colon
MOLT-4 leukemia = test system: MOLT-4 leukemia
SK-MEL-2 melanoma = test system: SK-MEL-2 melanoma
SW-620 colon = test system: SW-620 colon
RPMI-8226 leukemia = test system: RPMI-8226 leukemia
NCI-H226 lung = test system: NCI-H226 lung
UO-31 renal = test system: UO-31 renal
OVCAR-5 ovarian = test system: OVCAR-5 ovarian
UACC-257 melanoma = test system: UACC-257 melanoma
CCRF-CEM leukemia = test system: CCRF-CEM leukemia
T-47D breast = test system: T-47D breast
IGROV1 ovarian = test system: IGROV1 ovarian
MDA-MB-435 = test system: MDA-MB-435
HT29 colon = test system: HT29 colon
SK-MEL-28 melanoma = test system: SK-MEL-28 melanoma
HCT-15 colon = test system: HCT-15 colon
LOX IMVI melanoma = test system: LOX IMVI melanoma
KM12 colon = test system: KM12 colon
HS 578T breast = test system: HS 578T breast
OVCAR-4 ovarian = test system: OVCAR-4 ovarian
NCI-H460 lung = test system: NCI-H460 lung
HOP-62 NSCLC = test system: HOP-62 NSCLC
MCF7 breast = test system: MCF7 breast
PC-3 prostate = test system: PC-3 prostate
EKVX NSCLC = test system: EKVX NSCLC
K-562 leukemia = test system: K-562 leukemia
OVCAR-3 ovarian = test system: OVCAR-3 ovarian
ACHN renal = test system: ACHN renal
786-0 renal = test system: 786-0 renal
UACC-62 melanoma = test system: UACC-62 melanoma
SF-295 CNS = test system: SF-295 CNS
SK-MEL-5 melanoma = test system: SK-MEL-5 melanoma
SNB-19 CNS = test system: SNB-19 CNS
SK-OV-3 ovarian = test system: SK-OV-3 ovarian
MALME-3M melanoma = test system: MALME-3M melanoma
SNB-75 CNS = test system: SNB-75 CNS
SR leukemia = test system: SR leukemia
SN12C renal = test system: SN12C renal
CAKI-1 renal = test system: CAKI-1 renal
HOP-92 NSCLC = test system: HOP-92 NSCLC
MDA-MB-231 breast = test system: MDA-MB-231 breast
U251 CNS = test system: U251 CNS
RXF 393 renal = test system: RXF 393 renal
HL-60(TB) leukemia = test system: HL-60(TB) leukemia
NCI/ADR-RES ovarian = test system: NCI/ADR-RES ovarian
NCI-H23 lung = test system: NCI-H23 lung
TK-10 renal = test system: TK-10 renal
SF-539 CNS = test system: SF-539 CNS
OVCAR-8 ovarian = test system: OVCAR-8 ovarian
NCI-H522 lung = test system: NCI-H522 lung
COLO 205 colon = test system: COLO 205 colon
SF-268 CNS = test system: SF-268 CNS
A498 renal = test system: A498 renal
HCC-2998 colon = test system: HCC-2998 colon
BT-549 breast = test system: BT-549 breast

Structure (SMILES): O=c1[nH]cnc2sc(=S)c3c(c12)CCC3
- TGI (A549 NSCLC): > 100 µM
- TGI (M14 melanoma): > 100 µM
- TGI (DU-145 prostate): > 100 µM
- TGI (HCT-116 colon): > 100 µM
- TGI (MOLT-4 leukemia): 41.2 µM
- TGI (SK-MEL-2 melanoma): > 100 µM
- TGI (SW-620 colon): 49.2 µM
- TGI (RPMI-8226 leukemia): 43 µM
- TGI (NCI-H226 lung): 72.7 µM
- TGI (UO-31 renal): > 100 µM
- TGI (OVCAR-5 ovarian): > 100 µM
- TGI (UACC-257 melanoma): 94 µM
- TGI (CCRF-CEM leukemia): 49 µM
- TGI (T-47D breast): > 100 µM
- TGI (IGROV1 ovarian): > 100 µM
- TGI (MDA-MB-435): > 100 µM
- TGI (HT29 colon): > 100 µM
- TGI (SK-MEL-28 melanoma): > 100 µM
- TGI (HCT-15 colon): 91.4 µM
- TGI (LOX IMVI melanoma): > 100 µM
- TGI (KM12 colon): > 100 µM
- TGI (HS 578T breast): > 100 µM
- TGI (OVCAR-4 ovarian): > 100 µM
- TGI (NCI-H460 lung): > 100 µM
- TGI (HOP-62 NSCLC): > 100 µM
- TGI (MCF7 breast): > 100 µM
- TGI (PC-3 prostate): > 100 µM
- TGI (EKVX NSCLC): > 100 µM
- TGI (K-562 leukemia): 29.2 µM
- TGI (OVCAR-3 ovarian): 53.2 µM
- TGI (ACHN renal): 33.6 µM
- TGI (786-0 renal): 33.3 µM
- TGI (UACC-62 melanoma): > 100 µM
- TGI (SF-295 CNS): > 100 µM
- TGI (SK-MEL-5 melanoma): 42.1 µM
- TGI (SNB-19 CNS): > 100 µM
- TGI (SK-OV-3 ovarian): > 100 µM
- TGI (MALME-3M melanoma): 98.2 µM
- TGI (SNB-75 CNS): > 100 µM
- TGI (SR leukemia): 35.5 µM
- TGI (SN12C renal): > 100 µM
- TGI (CAKI-1 renal): 49.4 µM
- TGI (HOP-92 NSCLC): 66.3 µM
- TGI (MDA-MB-231 breast): > 100 µM
- TGI (U251 CNS): > 100 µM
- TGI (RXF 393 renal): 63.4 µM
- TGI (HL-60(TB) leukemia): 57.6 µM
- TGI (NCI/ADR-RES ovarian): > 100 µM
- TGI (NCI-H23 lung): 62.8 µM
- TGI (TK-10 renal): 61.9 µM
- TGI (SF-539 CNS): > 100 µM
- TGI (OVCAR-8 ovarian): > 100 µM
- TGI (NCI-H522 lung): 41.8 µM
- TGI (COLO 205 colon): 62.7 µM
- TGI (SF-268 CNS): > 100 µM

Structure (SMILES): CSc1ncc2c(n1)-c1ccccc1OC2NC(C)(C)C (centres undefined)
- TGI (A498 renal): 7.36 µM
- TGI (A549 NSCLC): > 100 µM
- TGI (M14 melanoma): > 100 µM
- TGI (DU-145 prostate): > 100 µM
- TGI (HCT-116 colon): > 100 µM
- TGI (MOLT-4 leukemia): > 100 µM
- TGI (SW-620 colon): > 100 µM
- TGI (RPMI-8226 leukemia): > 100 µM
- TGI (NCI-H226 lung): > 100 µM
- TGI (UO-31 renal): > 100 µM
- TGI (OVCAR-5 ovarian): > 100 µM
- TGI (UACC-257 melanoma): > 100 µM
- TGI (CCRF-CEM leukemia): > 100 µM
- TGI (T-47D breast): > 100 µM
- TGI (MDA-MB-435): > 100 µM
- TGI (HCC-2998 colon): 87 µM
- TGI (HT29 colon): > 100 µM
- TGI (SK-MEL-28 melanoma): > 100 µM
- TGI (HCT-15 colon): > 100 µM
- TGI (LOX IMVI melanoma): > 100 µM
- TGI (KM12 colon): > 100 µM
- TGI (HS 578T breast): > 100 µM
- TGI (OVCAR-4 ovarian): > 100 µM
- TGI (NCI-H460 lung): > 100 µM
- TGI (HOP-62 NSCLC): > 100 µM
- TGI (MCF7 breast): > 100 µM
- TGI (PC-3 prostate): > 100 µM
- TGI (EKVX NSCLC): > 100 µM
- TGI (K-562 leukemia): > 100 µM
- TGI (OVCAR-3 ovarian): > 100 µM
- TGI (ACHN renal): > 100 µM
- TGI (786-0 renal): > 100 µM
- TGI (UACC-62 melanoma): > 100 µM
- TGI (SF-295 CNS): > 100 µM
- TGI (SNB-19 CNS): > 100 µM
- TGI (SK-OV-3 ovarian): > 100 µM
- TGI (MALME-3M melanoma): > 100 µM
- TGI (SNB-75 CNS): 88.1 µM
- TGI (SR leukemia): > 100 µM
- TGI (SN12C renal): > 100 µM
- TGI (CAKI-1 renal): > 100 µM
- TGI (HOP-92 NSCLC): > 100 µM
- TGI (MDA-MB-231 breast): > 100 µM
- TGI (U251 CNS): > 100 µM
- TGI (RXF 393 renal): > 100 µM
- TGI (HL-60(TB) leukemia): > 100 µM
- TGI (NCI-H23 lung): > 100 µM
- TGI (TK-10 renal): > 100 µM
- TGI (BT-549 breast): > 100 µM
- TGI (SF-539 CNS): > 100 µM
- TGI (OVCAR-8 ovarian): > 100 µM
- TGI (NCI-H522 lung): 74.5 µM
- TGI (COLO 205 colon): > 100 µM
- TGI (SF-268 CNS): > 100 µM
